What was measured:
thrombin = target: T1, thrombin (Bos taurus, UniProt P00735); assay: Chromogenic thrombin (factor IIa) inhibition test with substrate S-2238, absorption at 405 nm; format: biochemical; details: samples of plasma, serum and urine spiked at different concentrations, FIGS. 2 and 3
T1 construct: purchased Chromogenix
Protocol: Dissolve 1 ampule thrombin 10 U with 1 ml aqua. dest and is brought to 11.5 ml with Tris-Buffer. Additionally, add 1 ml aprotinin 500 KIU/ml.
The concentration of Dabigatran and Hirudin was carried out using the standard curve. The concentration of Dabigatran/Hirudin was determined by the optical density (OD) of the sample.

[1] = Concentration of dabigatran in urine of a treated patient, read from curve of spiked urine; set-up: species or system human
Protocol: This program quantifies the colors red, yellow and blue. […] Mean values were calculated from double values.

| inhibition of the activity of thrombin and release of para-nitroaniline from chromogenic substrate S2238 (thrombin) | concentration of dabigatran ([1]; human urine from a patient treated with dabigatran, undiluted) | concentration of dabigatran ([1]; patient urine diluted 1:10 with urine not containing dabigatran) | concentration of dabigatran ([1]; patient urine diluted 1:100 with urine not containing dabigatran) | Compound |
| --- | --- | --- | --- | --- |
| in a dose-dependent manner | – | – | – | Hirudin |
| – | 85 ng | 8.5 ng | 0.85 ng | [H]/N=C(/N)c1ccc(NCc2nc3cc(C(=O)N(CCC(=O)O)c4ccccn4)ccc3n2C)cc1 [Dabigatran] |
